From ChEMBL document CHEMBL5233271, “Discovering the Mechanisms of Wikstroelide E as a Potential HIV-Latency-Reversing Agent by Transcriptome Profiling” (J Nat Prod, 2021)
The source made the active and inactive calls. The calls are words filed in the database; no cut-off is given here.

Assays:
[1] = system: Human immunodeficiency virus; assay: Reactivation of latent HIV in human NH1 cells at 5 uM measured after 24 hrs by luciferase based analysis; assay type: functional, organism-based
[2] = system: Human immunodeficiency virus; assay: Reactivation of latent HIV in human NH2 cells at 5 uM measured after 24 hrs by luciferase based analysis; assay type: functional, organism-based

In the case of `CC(=O)O[C@@]12C[C@@H](C)[C@@]3(O)[C@@H](C=C(CO)C[C@]4(O)C(=O)C(C)=C[C@@H]34)[C@@H]1C2(C)C`, the Activity [1] is reported as “Active” and the Activity [2] is reported as “Active”.
